Experimental data reported in PubChem BioAssay (NCI).
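Results reflect a 48-hour exposure of cells in 96-well plates to compound at five concentrations. TGI: concentration producing complete growth inhibition.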

Legend:
Experiment in all cases: inhibition of tumour cell growth, NCI panel, 48 h
[1] = system: DLD-1 colon
[2] = system: HOP-62 NSCLC
[3] = system: HL-60(TB) leukemia
[4] = system: SR leukemia
[5] = system: RXF 393 renal
[6] = system: TK-10 renal
[7] = system: IGROV1 ovarian
[8] = system: NCI-H23 lung
[9] = system: NCI-H522 lung
[10] = system: UO-31 renal
[11] = system: DMS 273 small cell lung
[12] = system: HCT-116 colon
[13] = system: ACHN renal
[14] = system: NCI-H460 lung
[15] = system: COLO 205 colon
[16] = system: EKVX NSCLC
[17] = system: SK-OV-3 ovarian
[18] = system: DMS 114 small cell lung
[19] = system: KM12 colon
[20] = system: M19-MEL melanoma
[21] = system: HOP-92 NSCLC
[22] = system: OVCAR-5 ovarian
[23] = system: UACC-257 melanoma
[24] = system: XF 498 CNS
[25] = system: LOX IMVI melanoma
[26] = system: MOLT-4 leukemia
[27] = system: SNB-75 CNS
[28] = system: RXF-631 renal
[29] = system: RPMI-8226 leukemia
[30] = system: SNB-19 CNS
[31] = system: HCC-2998 colon
[32] = system: CAKI-1 renal
[33] = system: LXFL 529 NSCLC
[34] = system: A549 NSCLC
[35] = system: 786-0 renal
[36] = system: U251 CNS
[37] = system: SF-539 CNS
[38] = system: K-562 leukemia
[39] = system: OVCAR-8 ovarian
[40] = system: SF-268 CNS
[41] = system: SW-620 colon
[42] = system: NCI-H226 lung
[43] = system: SK-MEL-28 melanoma
[44] = system: CCRF-CEM leukemia
[45] = system: SNB-78 CNS
[46] = system: MALME-3M melanoma
[47] = system: HOP-18 NSCLC
[48] = system: OVCAR-3 ovarian
[49] = system: SF-295 CNS
[50] = system: OVCAR-4 ovarian
[51] = system: A498 renal
[52] = system: HCT-15 colon
[53] = system: SK-MEL-2 melanoma
[54] = system: HT29 colon
[55] = system: M14 melanoma
[56] = system: SN12C renal
[57] = system: SK-MEL-5 melanoma
[58] = system: UACC-62 melanoma
[59] = system: KM20L2 colon

Structure (SMILES): NNC(=O)/C(=C/c1cccc([N+](=O)[O-])c1)NC(=O)c1ccccc1
- TGI [1]: > 100 µM
- TGI [2]: > 100 µM
- TGI [3]: > 100 µM
- TGI [4]: > 100 µM
- TGI [5]: > 100 µM
- TGI [6]: > 100 µM
- TGI [7]: > 100 µM
- TGI [8]: > 100 µM
- TGI [9]: > 100 µM
- TGI [10]: > 100 µM
- TGI [11]: > 100 µM
- TGI [12]: > 100 µM
- TGI [13]: > 100 µM
- TGI [14]: > 100 µM
- TGI [15]: > 100 µM
- TGI [16]: > 100 µM
- TGI [17]: > 100 µM
- TGI [18]: > 100 µM
- TGI [19]: > 100 µM
- TGI [20]: > 100 µM
- TGI [21]: > 100 µM
- TGI [22]: > 100 µM
- TGI [23]: > 100 µM
- TGI [24]: > 100 µM
- TGI [25]: > 100 µM
- TGI [26]: > 100 µM
- TGI [27]: > 100 µM
- TGI [28]: > 100 µM
- TGI [29]: > 100 µM
- TGI [30]: > 100 µM
- TGI [31]: > 100 µM
- TGI [32]: > 100 µM
- TGI [33]: > 100 µM
- TGI [34]: > 100 µM
- TGI [35]: > 100 µM
- TGI [36]: > 100 µM
- TGI [37]: > 100 µM
- TGI [38]: > 100 µM
- TGI [39]: > 100 µM
- TGI [40]: > 100 µM
- TGI [41]: > 100 µM
- TGI [42]: > 100 µM
- TGI [43]: > 100 µM
- TGI [44]: > 100 µM
- TGI [45]: > 100 µM
- TGI [46]: > 100 µM
- TGI [47]: > 100 µM
- TGI [48]: > 100 µM
- TGI [49]: > 100 µM
- TGI [50]: > 100 µM
- TGI [51]: > 100 µM
- TGI [52]: > 100 µM
- TGI [53]: > 100 µM
- TGI [54]: > 100 µM
- TGI [55]: > 100 µM
- TGI [56]: > 100 µM
- TGI [57]: > 100 µM

Structure (SMILES): C/C(=N\N(C)C)c1sc(-n2nc(-c3ccccc3)cc2-c2ccccc2)nc1C
- TGI [1]: > 100 µM
- TGI [2]: > 100 µM
- TGI [3]: > 100 µM
- TGI [4]: > 100 µM
- TGI [5]: > 100 µM
- TGI [6]: > 100 µM
- TGI [7]: > 100 µM
- TGI [8]: > 100 µM
- TGI [58]: > 100 µM
- TGI [9]: > 100 µM
- TGI [10]: > 100 µM
- TGI [11]: > 100 µM
- TGI [12]: > 100 µM
- TGI [13]: > 100 µM
- TGI [14]: > 100 µM
- TGI [15]: > 100 µM
- TGI [16]: > 100 µM
- TGI [17]: > 100 µM
- TGI [18]: > 100 µM
- TGI [19]: > 100 µM
- TGI [20]: > 100 µM
- TGI [21]: > 100 µM
- TGI [22]: 82.4 µM
- TGI [23]: > 100 µM
- TGI [24]: > 100 µM
- TGI [25]: 35.3 µM
- TGI [26]: > 100 µM
- TGI [27]: 81.1 µM
- TGI [28]: > 100 µM
- TGI [30]: > 100 µM
- TGI [31]: > 100 µM
- TGI [32]: > 100 µM
- TGI [33]: > 100 µM
- TGI [34]: > 100 µM
- TGI [35]: > 100 µM
- TGI [36]: > 100 µM
- TGI [37]: > 100 µM
- TGI [38]: > 100 µM
- TGI [39]: > 100 µM
- TGI [40]: > 100 µM
- TGI [41]: > 100 µM
- TGI [42]: > 100 µM
- TGI [43]: > 100 µM
- TGI [44]: > 100 µM
- TGI [45]: > 100 µM
- TGI [46]: > 100 µM
- TGI [47]: > 100 µM
- TGI [48]: > 100 µM
- TGI [49]: > 100 µM
- TGI [59]: > 100 µM
- TGI [50]: > 100 µM
- TGI [51]: > 100 µM
- TGI [52]: > 100 µM
- TGI [53]: > 100 µM
- TGI [54]: > 100 µM
- TGI [55]: > 100 µM
- TGI [56]: > 100 µM
- TGI [57]: > 100 µM
